Patent publication US10568879B2 (GALAPAGOS NV, priority 2015, dated 2020)

Tests used:
GPR84 = molecular target: T1, GPR84 (Homo sapiens, UniProt Q9NQS5); assay: GPR84 [35S]GTPγS binding assay; type: biochemical; details: 3,3′-diindolylmethane at EC80; membranes from stable cell line over expressing GPR84
T1 construct: expressed in transfected cells
Procedure, shortened: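 Antagonist-mode [35S]GTPγS binding on membranes from a GPR84-overexpressing stable line (GDP-preincubated), stimulated with 3,3′-diindolylmethane at EC80. Buffer 20 mM Tris pH 7.5, 5 mM MgCl2, 250 mM NaCl, saponin; 0.1 nM [35S]GTPγS, 90 min at room temperature, SPA bead read-out.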

human neutrophils = assay: Human neutrophil migration assay; type: cell-based; details: Homo sapiens, Neutrophil; embelin at EC80 as chemotactic agent; 1 h at 37° C.; read-out: Human neutrophil migration IC50
Procedure: The activity of GPR84 agonists and antagonists can therefore be assayed in a human neutrophil migration assay. The human neutrophil migration assay makes use of freshly isolated human neutrophils from buffy coats that are subsequently used in a functional chemotaxis assay setup. […] After 1 h of incubation at 37° C. and 5% CO2, the number of migrated neutrophils in the lower compartment can be quantified by measuring the ATP content using ATPlite™ Luminescence Assay System. A human buffy coat suspension is diluted with an equal volume of ice cold DPBS. 20 mL of the diluted buffy coat suspension is gently mixed with 4 mL of ACD buffer (140 mM citric acid, 200 mM sodium citrate and 220 mM dextrose). Then, 12 mL of a 6% dextran/0.9% NaCl solution (15 g dextran T2000 and 2.25 g NaCl dissolved in 250 mL H2O) is added to the mixture and the samples are inverted gently up to 20 times. The total volume is transferred to a new recipient and incubated at room temperature to allow sedimentation of red blood cells. The yellowish upper fraction is then transferred to a clean centrifugation tube and centrifuged for 12 min at 1300 rpm and 4° C. After centrifugation, the supernatant is discarded and the remaining cell pellet is rapidly resuspended in 12 mL of ice-cold H2O to perform a red blood cell lysis by osmotic burst. After 20 seconds, 4 mL of ice-cold 0.6 M KCl is added to restore salt concentration. Samples are mixed carefully and centrifuged for 6 min at 1300 rpm and 4° C. The supernatant is discarded and the red blood cell lysis procedure is repeated one more time. […] A neutrophil cell suspension of 8.9×10^6 cells per mL is prepared in chemotaxis buffer and 180 μL per well is plated in a 96-well V-bottom plate. 20 μL of test compound solution in chemotaxis buffer is added to the 180 μL cell suspension. The mixture is incubated at room temperature for 30 min with intermediate gentle resuspension of the cells after 15 min. […] After 1 h at 37° C., 5% CO2 in a humidified incubator, the upper plate of the Transwell® system is gently removed. […] After incubation, 270 μL of cell lysate is then transferred onto a white 96-well plate for quantification by a luminescence plate reader. The relative luminescent signal measured is considered linearly related to the number of cells having migrated from the upper compartment into the receiver well.

T1 sequence (Q9NQS5 whole entry): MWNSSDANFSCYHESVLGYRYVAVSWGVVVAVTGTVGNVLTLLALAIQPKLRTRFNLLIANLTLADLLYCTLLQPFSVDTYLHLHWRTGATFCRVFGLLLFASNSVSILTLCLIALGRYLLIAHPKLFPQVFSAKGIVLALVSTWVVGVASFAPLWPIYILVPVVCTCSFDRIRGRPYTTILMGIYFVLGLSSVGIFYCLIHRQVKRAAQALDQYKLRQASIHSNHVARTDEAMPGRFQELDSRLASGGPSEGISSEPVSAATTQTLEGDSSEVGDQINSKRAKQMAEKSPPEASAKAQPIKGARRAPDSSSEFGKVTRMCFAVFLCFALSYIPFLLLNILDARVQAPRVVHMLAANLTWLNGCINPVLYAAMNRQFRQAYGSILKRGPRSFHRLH

Row | IC50 (GPR84) [nM] | IC50 (human neutrophils) [nM] | SMILES
1 | 0.01 to 100 | 0.01 to 100 | Cc1ccc(COc2ccc3c(c2)CCn2c(OCC4CCCCO4)cc(=O)c(C)c2-3)cn1 (centres unmarked) [Compound 51, 1-methyl-9-[(6-methyl-3-pyridyl)methoxy]-4-(tetrahydropyran-2-ylmethoxy)-6,7-dihydrobenzo[a]quinolizin-2-one]
2 | 0.01 to 100 | 0.01 to 100 | Cc1noc(COc2ccc3c(c2)CCn2c(OC[C@@H]4COCCO4)cc(=O)c(C)c2-3)n1 [Compound 58, 4-[[(2S)-1,4-dioxan-2-yl]methoxy]-1-methyl-9-[(3-methyl-1,2,4-oxadiazol-5-yl)methoxy]-6,7-dihydrobenzo[a]quinolizin-2-one]
3 | 0.01 to 100 | 0.01 to 100 | Cc1c2n(c(OC[C@@H]3COCCO3)cc1=O)CCc1cc(OCC(F)F)ccc1-2 [Compound 61, 9-(2,2-difluoroethoxy)-4-[[(2S)-1,4-dioxan-2-yl]methoxy]-1-methyl-6,7-dihydrobenzo[a]quinolizin-2-one]
4 | 0.01 to 100 | 100 to 500 | Cc1c2n(c(OC[C@@H]3COCCO3)cc1=O)CCc1cc(N3CCOCC3)ccc1-2 [Compound 63, 4-[[(2S)-1,4-dioxan-2-yl]methoxy]-1-methyl-9-morpholino-6,7-dihydrobenzo[a]quinolizin-2-one]
5 | 0.01 to 100 | 0.01 to 100 | Cc1c2n(c(OC[C@@H]3COCCO3)cc1=O)CCc1cc(N3CCC(F)(F)CC3)ccc1-2 [Compound 65, 9-(4,4-difluoro-1-piperidyl)-4-[[(2S)-1,4-dioxan-2-yl]methoxy]-1-methyl-6,7-dihydrobenzo[a]quinolizin-2-one]
6 | 0.01 to 100 | 0.01 to 100 | Cc1c2n(c(OC[C@@H]3COCCO3)cc1=O)CCc1cc(N3CCN(C(=O)C4CC4)CC3)ccc1-2 [Compound 69, 9-[4-(cyclopropanecarbonyl)piperazin-1-yl]-4-[[(2S)-1,4-dioxan-2-yl]methoxy]-1-methyl-6,7-dihydrobenzo[a]quinolizin-2-one]
7 | 0.01 to 100 | 0.01 to 100 | Cc1c2n(c(OC[C@@H]3COCCO3)cc1=O)CCc1cc(NC(=O)C3CC3)ccc1-2 [Compound 70, N-[4-[[(2S)-1,4-dioxan-2-yl]methoxy]-1-methyl-2-oxo-6,7-dihydrobenzo[a]quinolizin-9-yl]cyclopropanecarboxamide]
8 | 0.01 to 100 | 0.01 to 100 | COC(=O)N1CC=C(c2ccc3c(c2)CCn2c(OC[C@@H]4COCCO4)cc(=O)c(C)c2-3)CC1 [Compound 76, methyl 4-[4-[[(2S)-1,4-dioxan-2-yl]methoxy]-1-methyl-2-oxo-6,7-dihydrobenzo[a]quinolizin-9-yl]-3,6-dihydro-2H-pyridine-1-carboxylate]
9 | 0.01 to 100 | 0.01 to 100 | CCOC(=O)N1CC=C(c2ccc3c(c2)CCn2c(OC[C@@H]4COCCO4)cc(=O)c(C)c2-3)CC1 [Compound 77, ethyl 4-[4-[[(2S)-1,4-dioxan-2-yl]methoxy]-1-methyl-2-oxo-6,7-dihydrobenzo[a]quinolizin-9-yl]-3,6-dihydro-2H-pyridine-1-carboxylate]
10 | 0.01 to 100 | 0.01 to 100 | Cc1c2n(c(OC[C@@H]3COCCO3)cc1=O)CCc1cc(C3=CCN(C(=O)OC(C)C)CC3)ccc1-2 [Compound 78, isopropyl 4-[4-[[(2S)-1,4-dioxan-2-yl]methoxy]-1-methyl-2-oxo-6,7-dihydrobenzo[a]quinolizin-9-yl]-3,6-dihydro-2H-pyridine-1-carboxylate]
11 | 0.01 to 100 | 0.01 to 100 | Cc1c2n(c(OC[C@@H]3COCCO3)cc1=O)CCc1cc(C3=CCN(C(=O)OCC(F)(F)F)CC3)ccc1-2 [Compound 79, 2,2,2-trifluoroethyl 4-[4-[[(2S)-1,4-dioxan-2-yl]methoxy]-1-methyl-2-oxo-6,7-dihydrobenzo[a]quinolizin-9-yl]-3,6-dihydro-2H-pyridine-1-carboxylate]
12 | 0.01 to 100 | 0.01 to 100 | COC(=O)N1CCC(c2ccc3c(c2)CCn2c(OC[C@@H]4COCCO4)cc(=O)c(C)c2-3)CC1 [Compound 80, methyl 4-[4-[[(2S)-1,4-dioxan-2-yl]methoxy]-1-methyl-2-oxo-6,7-dihydrobenzo[a]quinolizin-9-yl]piperidine-1-carboxylate]
13 | 0.01 to 100 | 0.01 to 100 | CCOC(=O)N1CCC(c2ccc3c(c2)CCn2c(OC[C@@H]4COCCO4)cc(=O)c(C)c2-3)CC1 [Compound 81, ethyl 4-[4-[[(2S)-1,4-dioxan-2-yl]methoxy]-1-methyl-2-oxo-6,7-dihydrobenzo[a]quinolizin-9-yl]piperidine-1-carboxylate]
14 | 0.01 to 100 | 0.01 to 100 | Cc1c2n(c(OC[C@@H]3COCCO3)cc1=O)CCc1cc(C3CCN(C(=O)OC(C)C)CC3)ccc1-2 [Compound 82, isopropyl 4-[4-[[(2S)-1,4-dioxan-2-yl]methoxy]-1-methyl-2-oxo-6,7-dihydrobenzo[a]quinolizin-9-yl]piperidine-1-carboxylate]
15 | 0.01 to 100 | 0.01 to 100 | Cc1c2n(c(OC[C@@H]3COCCO3)cc1=O)CCc1cc(C3CCN(C(=O)OCC(F)(F)F)CC3)ccc1-2 [Compound 83, 2,2,2-trifluoroethyl 4-[4-[[(2S)-1,4-dioxan-2-yl]methoxy]-1-methyl-2-oxo-6,7-dihydrobenzo[a]quinolizin-9-yl]piperidine-1-carboxylate]
16 | 0.01 to 100 | 0.01 to 100 | Cc1c2n(c(OC[C@@H]3COCCO3)cc1=O)CCc1cc(N3CC(F)(F)C3)ccc1-2 [Compound 86, 9-(3,3-difluoroazetidin-1-yl)-4-[[(2S)-1,4-dioxan-2-yl]methoxy]-1-methyl-6,7-dihydrobenzo[a]quinolizin-2-one]
17 | 0.01 to 100 | 100 to 500 | Cc1c2n(c(OC[C@@H]3COCCO3)cc1=O)CCc1cc(N3CC(F)C3)ccc1-2 [Compound 91, 4-[[(2S)-1,4-dioxan-2-yl]methoxy]-9-(3-fluoroazetidin-1-yl)-1-methyl-6,7-dihydrobenzo[a]quinolizin-2-one]
18 | 0.01 to 100 | 100 to 500 | Cc1c2n(c(OC[C@@H]3COCCO3)cc1=O)CCc1cc(N3CCC3)ccc1-2 [Compound 93, 9-(azetidin-1-yl)-4-[[(2S)-1,4-dioxan-2-yl]methoxy]-1-methyl-6,7-dihydrobenzo[a]quinolizin-2-one]
19 | 0.01 to 100 | 100 to 500 | Cc1c2n(c(OC[C@@H]3COCCO3)cc1=O)CCc1cc(N3CC(n4cccn4)C3)ccc1-2 [Compound 95, 4-[[(2S)-1,4-dioxan-2-yl]methoxy]-1-methyl-9-(3-pyrazol-1-ylazetidin-1-yl)-6,7-dihydrobenzo[a]quinolizin-2-one]
